Assay results reported in article PMC6059433, “Discovery of fragments that target key interactions in the signal recognition particle (SRP) as potential leads for a new class of antibiotics” (PLoS ONE, 2018).

Biological target: T1, FtsY (FtsYNG) (Escherichia coli, UniProt P10121)
T1 construct: NG domain, 196–497 aa
Test: SPR (positive control, […] MgCl2 in running buffer); […]-TROSY-HSQC titration
Type: binding

T1 sequence (P10121 196-497): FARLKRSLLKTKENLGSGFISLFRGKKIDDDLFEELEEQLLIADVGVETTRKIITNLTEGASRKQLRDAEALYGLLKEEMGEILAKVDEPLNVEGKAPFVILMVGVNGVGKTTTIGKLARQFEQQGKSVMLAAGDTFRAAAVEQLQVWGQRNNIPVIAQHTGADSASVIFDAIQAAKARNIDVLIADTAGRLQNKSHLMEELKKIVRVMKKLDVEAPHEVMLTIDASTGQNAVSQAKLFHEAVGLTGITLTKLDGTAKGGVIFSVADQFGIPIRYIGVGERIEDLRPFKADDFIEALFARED

## Nc1nc2c(ncn2[C@@H]2O[C@H](COP(=O)(O)OP(=O)(O)NP(=O)(O)O)[C@@H](O)[C@H]2O)c(=O)[nH]1 [GMPPNP]
  Kd: 280 ± 80 µM
